# Test results published in PubChem BioAssay AID2060495 (Molecular Pharmacology Branch, DTP, NCI, 2025).
# Tested on: 521955-158-R2-J5-PDC complex spheroid viability
# Assay: Anticancer human tumor 521955-158-R2-J5-PDC patient-derived pancreatic carcinoma cell line growth inhibition [GQUAD]
# Settings: for IC50: curve of first compound; for viability, T/C: stronger effect = lower value
# Outline: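 Tumor cells were grown as complex spheroids with HUVEC endothelial cells and mesenchymal stem cells as stroma. G-quadruplex stabilizers were combined with targeted agents over half-log dilutions from near the clinical Cmax, or from 10 microM.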
# [1] = second compound 0.0316 µM, first compound 0.0316 µM
# [2] = second compound 0.0316 µM, first compound 0.1 µM
# [3] = second compound 0.0316 µM, first compound 0.316 µM
# [4] = second compound 0.0316 µM, first compound 1 µM
# [5] = second compound 0.0316 µM, first compound 3.16 µM
# [6] = second compound 0.0316 µM, first compound 10 µM
# [7] = second compound 0.1 µM, first compound 0.0316 µM
# [8] = second compound 0.1 µM, first compound 0.1 µM
# [9] = second compound 0.1 µM, first compound 0.316 µM
# [10] = second compound 0.1 µM, first compound 1 µM
# [11] = second compound 0.1 µM, first compound 3.16 µM
# [12] = second compound 0.1 µM, first compound 10 µM
# [13] = second compound 0.316 µM, first compound 0.0316 µM
# [14] = second compound 0.316 µM, first compound 0.1 µM
# [15] = second compound 0.316 µM, first compound 0.316 µM
# [16] = second compound 0.316 µM, first compound 1 µM
# [17] = second compound 0.316 µM, first compound 3.16 µM
# [18] = second compound 0.316 µM, first compound 10 µM
# [19] = second compound 1 µM, first compound 0.0316 µM
# [20] = second compound 1 µM, first compound 0.1 µM
# [21] = second compound 1 µM, first compound 0.316 µM
# [22] = second compound 1 µM, first compound 1 µM
# [23] = second compound 1 µM, first compound 3.16 µM
# [24] = second compound 1 µM, first compound 10 µM
# [25] = second compound 3.16 µM, first compound 0.0316 µM
# [26] = second compound 3.16 µM, first compound 0.1 µM
# [27] = second compound 3.16 µM, first compound 0.316 µM
# [28] = second compound 3.16 µM, first compound 1 µM
# [29] = second compound 3.16 µM, first compound 3.16 µM
# [30] = second compound 3.16 µM, first compound 10 µM
# [31] = second compound 10 µM, first compound 0.0316 µM
# [32] = second compound 10 µM, first compound 0.1 µM
# [33] = second compound 10 µM, first compound 0.316 µM
# [34] = second compound 10 µM, first compound 1 µM
# [35] = second compound 10 µM, first compound 3.16 µM
# [36] = second compound 10 µM, first compound 10 µM
# 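Also: spheroids exposed to agents for one week before reading.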
# 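For viability, T/C in this document: 100% = DMSO vehicle control viability.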
smiles,measurement,setting,value
COc1cccc2c1C(=O)c1c(O)c3c(c(O)c1C2=O)CC(O)(C(=O)CO)CC3OC1CC(N)C(O)C(C)O1 (stereo unspecified) + Cc1[nH]c2ccc(F)cc2c1-c1nc2c3cccnc3c3ncccc3c2[nH]1,IC50,second compound 0.0316 µM,150 nM
same,IC50,second compound 0.1 µM,193 nM
same,IC50,second compound 0.316 µM,188 nM
same,IC50,second compound 1 µM,130 nM
same,IC50,second compound 3.16 µM,156 nM
same,IC50,second compound 10 µM,182 nM
same,"viability, T/C",[1],102%
same,"viability, T/C",[2],60.3%
same,"viability, T/C",[3],31.3%
same,"viability, T/C",[4],13.2%
same,"viability, T/C",[5],5.72%
same,"viability, T/C",[6],0.72%
same,"viability, T/C",[7],92.3%
same,"viability, T/C",[8],72.2%
same,"viability, T/C",[9],32.9%
same,"viability, T/C",[10],11%
same,"viability, T/C",[11],5.83%
same,"viability, T/C",[12],0.27%
same,"viability, T/C",[13],88.4%
same,"viability, T/C",[14],72.9%
same,"viability, T/C",[15],30%
same,"viability, T/C",[16],13.7%
same,"viability, T/C",[17],3.99%
same,"viability, T/C",[18],0.46%
same,"viability, T/C",[19],90.1%
same,"viability, T/C",[20],57.7%
same,"viability, T/C",[21],25.4%
same,"viability, T/C",[22],14.1%
same,"viability, T/C",[23],5.66%
same,"viability, T/C",[24],0.41%
same,"viability, T/C",[25],85.7%
same,"viability, T/C",[26],65.6%
same,"viability, T/C",[27],24.5%
same,"viability, T/C",[28],17.2%
same,"viability, T/C",[29],4.87%
same,"viability, T/C",[30],0.33%
same,"viability, T/C",[31],97.5%
same,"viability, T/C",[32],73.6%
same,"viability, T/C",[33],27.5%
same,"viability, T/C",[34],12.1%
same,"viability, T/C",[35],9.02%
same,"viability, T/C",[36],0.29%
Nc1ccn(C2OC(CO)C(O)C2(F)F)c(=O)n1 (stereo unspecified) + Cc1[nH]c2ccc(F)cc2c1-c1nc2c3cccnc3c3ncccc3c2[nH]1,IC50,second compound 0.0316 µM,421 nM
same,IC50,second compound 0.1 µM,424 nM
same,IC50,second compound 0.316 µM,436 nM
same,IC50,second compound 1 µM,449 nM
same,IC50,second compound 3.16 µM,485 nM
same,IC50,second compound 10 µM,467 nM
same,"viability, T/C",[1],78.3%
same,"viability, T/C",[2],83.1%
same,"viability, T/C",[3],61.9%
same,"viability, T/C",[4],13.8%
same,"viability, T/C",[5],10.5%
same,"viability, T/C",[6],7.49%
same,"viability, T/C",[7],77.1%
same,"viability, T/C",[8],79.2%
same,"viability, T/C",[9],58.9%
same,"viability, T/C",[10],22.3%
same,"viability, T/C",[11],10.8%
same,"viability, T/C",[12],6.82%
same,"viability, T/C",[13],89%
same,"viability, T/C",[14],75.3%
same,"viability, T/C",[15],64.1%
same,"viability, T/C",[16],15%
same,"viability, T/C",[17],10.6%
same,"viability, T/C",[18],7.06%
same,"viability, T/C",[19],88.9%
same,"viability, T/C",[20],80.4%
same,"viability, T/C",[21],61.6%
same,"viability, T/C",[22],25.1%
same,"viability, T/C",[23],9.92%
same,"viability, T/C",[24],7.24%
same,"viability, T/C",[25],92.8%
same,"viability, T/C",[26],93.3%
same,"viability, T/C",[27],66.4%
same,"viability, T/C",[28],21.8%
same,"viability, T/C",[29],12.9%
same,"viability, T/C",[30],10.2%
same,"viability, T/C",[31],109%
same,"viability, T/C",[32],104%
same,"viability, T/C",[33],61.7%
same,"viability, T/C",[34],25.3%
same,"viability, T/C",[35],8.99%
same,"viability, T/C",[36],7.65%
O=c1[nH]cc(F)c(=O)[nH]1 + Cc1[nH]c2ccc(F)cc2c1-c1nc2c3cccnc3c3ncccc3c2[nH]1,IC50,second compound 0.0316 µM,3720 nM
same,IC50,second compound 0.1 µM,4880 nM
same,IC50,second compound 0.316 µM,3090 nM
same,IC50,second compound 1 µM,2480 nM
same,IC50,second compound 3.16 µM,2530 nM
same,IC50,second compound 10 µM,2080 nM
same,"viability, T/C",[1],110%
same,"viability, T/C",[2],84.6%
same,"viability, T/C",[3],76%
same,"viability, T/C",[4],96.7%
same,"viability, T/C",[5],55%
same,"viability, T/C",[6],19.6%
same,"viability, T/C",[7],99.6%
same,"viability, T/C",[8],97.1%
same,"viability, T/C",[9],90.7%
same,"viability, T/C",[10],89.6%
same,"viability, T/C",[11],67%
same,"viability, T/C",[12],21.1%
same,"viability, T/C",[13],90.9%
same,"viability, T/C",[14],94.3%
same,"viability, T/C",[15],104%
same,"viability, T/C",[16],97.8%
same,"viability, T/C",[17],48.9%
same,"viability, T/C",[18],16.2%
same,"viability, T/C",[19],95.2%
same,"viability, T/C",[20],114%
same,"viability, T/C",[21],91.1%
same,"viability, T/C",[22],91.4%
same,"viability, T/C",[23],38.9%
same,"viability, T/C",[24],22%
same,"viability, T/C",[25],106%
same,"viability, T/C",[26],97.2%
same,"viability, T/C",[27],107%
same,"viability, T/C",[28],104%
same,"viability, T/C",[29],37.1%
same,"viability, T/C",[30],18.2%
same,"viability, T/C",[31],105%
same,"viability, T/C",[32],104%
same,"viability, T/C",[33],103%
same,"viability, T/C",[34],88.5%
same,"viability, T/C",[35],28%
same,"viability, T/C",[36],19.3%
